Source: patent US9303012B2, “Pyridine-2-amides useful as CB2 agonists” (Hoffmann-La Roche Inc., priority 2012, dated 2016)

What was measured:
human CB2 receptors = human CB2 receptors (Homo sapiens (Human), UniProt P34972); experiment: functional cAMP assay, CHO cells expressing human CB2 receptors; type: cell-based
How it was run: (§1)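 CHO-hCB1/hCB2 cells, KRB + 1 mM IBMX preincubation 30 min 30 °C; cpd 30 min 30 °C; lysis + TR-FRET cAMP detection, 2 h RT; cAMP from std curve; EC50.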

human CB1 receptors = human CB1 receptors (Homo sapiens (Human), UniProt P21554); experiment: functional cAMP assay, CHO cells expressing human CB1 receptors; type: cell-based
Chain of human CB1 receptors (P21554 whole entry): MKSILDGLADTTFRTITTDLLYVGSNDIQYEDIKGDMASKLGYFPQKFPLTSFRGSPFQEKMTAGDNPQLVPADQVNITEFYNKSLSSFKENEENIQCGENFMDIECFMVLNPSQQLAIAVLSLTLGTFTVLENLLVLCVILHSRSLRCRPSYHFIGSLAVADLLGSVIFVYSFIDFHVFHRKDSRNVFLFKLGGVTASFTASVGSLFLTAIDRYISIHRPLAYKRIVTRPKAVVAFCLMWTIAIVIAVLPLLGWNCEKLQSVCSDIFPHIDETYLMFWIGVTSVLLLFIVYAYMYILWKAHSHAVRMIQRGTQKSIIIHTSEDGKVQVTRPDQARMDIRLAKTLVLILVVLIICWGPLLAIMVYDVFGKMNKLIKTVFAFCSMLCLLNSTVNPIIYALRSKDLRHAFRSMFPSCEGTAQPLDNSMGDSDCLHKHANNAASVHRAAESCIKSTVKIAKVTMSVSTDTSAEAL
How it was run: as §1

Chain of human CB2 receptors (P34972 whole entry): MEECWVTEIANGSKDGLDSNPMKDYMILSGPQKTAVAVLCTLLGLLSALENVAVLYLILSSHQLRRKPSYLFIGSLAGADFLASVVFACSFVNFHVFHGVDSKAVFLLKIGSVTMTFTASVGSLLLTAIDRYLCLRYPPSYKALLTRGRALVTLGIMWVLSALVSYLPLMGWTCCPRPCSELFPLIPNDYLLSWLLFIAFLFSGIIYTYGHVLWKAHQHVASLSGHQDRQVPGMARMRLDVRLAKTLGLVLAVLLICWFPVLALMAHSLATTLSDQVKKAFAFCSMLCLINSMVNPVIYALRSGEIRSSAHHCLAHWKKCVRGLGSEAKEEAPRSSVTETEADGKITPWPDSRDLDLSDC

| Structure (SMILES) | EC50 (human CB2 receptors) [nM] | EC50 (human CB1 receptors) [µM] |
| --- | --- | --- |
| COCCN(C(=O)c1ccc(N2CC(F)(F)C2)c(OCC2CC2)n1)C(C)(C)CO [Example 19, 6-Cyclopropylmethoxy-5-(3,3-difluoro-azetidin-1-yl)-pyridine-2-carboxylic acid (2-hydroxy-1,1-dimethyl-ethyl)-(2-methoxy-ethyl)-amide] | 856 | > 10 |
| CC1(C)CC(C(N)=O)N(C(=O)c2ccc(C3CC3)c(OCC3CC3)n2)C1 (stereo not drawn) [Example 90, 1-(5-Cyclopropyl-6-cyclopropylmethoxy-pyridine-2-carbonyl)-4,4-dimethyl-pyrrolidine-2-carboxylic acid amide] | 14.8 | > 10 |
| NC(=O)C1CC2(CC2)CN1C(=O)c1ccc(N2CC(F)(F)C2)c(OCC2CC2)n1 (stereo not drawn) [Example 135, 5-[6-(Cyclopropylmethoxy)-5-(3,3-difluoroazetidin-1-yl)pyridine-2-carbonyl]-5-azaspiro[2.4]heptane-6-carboxamide] | 15.6 | > 10 |
| CC(C)(C)OC(=O)N1CCC2(CCCN2C(=O)c2ccc(C3CC3)c(Cc3ccc(F)cc3)n2)CC1 [Example 111, 1-[5-Cyclopropyl-6-(4-fluoro-benzyl)-pyridine-2-carbonyl]-1,8-diaza-spiro[4.5]decane-8-carboxylic acid tert-butyl ester] | 8 | 2.78 |
| O=C(c1ccc(N2CC(F)(F)C2)c(OCC2CC2)n1)N1CCN(CC2CC2)CC1 [Example 106, [6-Cyclopropylmethoxy-5-(3,3-difluoro-azetidin-1-yl)-pyridin-2-yl]-(4-cyclopropylmethyl-piperazin-1-yl)-methanone] | 123 | > 10 |
| NC(=O)[C@@H]1CC(F)(F)CN1C(=O)c1ccc(C2(F)CCC2)c(OCC2CC2)n1 [Example 130, (2S)-1-[6-(Cyclopropylmethoxy)-5-(1-fluorocyclobutyl)pyridine-2-carbonyl]-4,4-difluoropyrrolidine-2-carboxamide] | 2.3 | > 10 |
| NC(=O)[C@@H]1CC2(CC2)CN1C(=O)c1ccc(N2CC(F)(F)C2)c(OCC2CC2)n1 [Example 145, (6S)-5-[6-(Cyclopropylmethoxy)-5-(3,3-difluoroazetidin-1-yl)pyridine-2-carbonyl]-5-azaspiro[2.4]heptane-6-carboxamide] | 356 | > 10 |
| CC1CN(C(=O)c2ccc(N3CC(F)(F)C3)c(OCC3CC3)n2)CC(C)O1 (stereo not drawn) [Example 119, [6-Cyclopropylmethoxy-5-(3,3-difluoro-azetidin-1-yl)-pyridin-2-yl]-(2,6-dimethyl-morpholin-4-yl)-methanone] | 599 | > 10 |
| O=C(c1ccc(N2CC(F)(F)C2)c(OCC2CC2)n1)N1CC2(CCCO2)C1 [Example 99, [6-Cyclopropylmethoxy-5-(3,3-difluoro-azetidin-1-yl)-pyridin-2-yl]-(5-oxa-2-aza-spiro[3.4]oct-2-yl)-methanone] | 305 | > 10 |
